# Source: patent publication US9464064B2, “HCV helicase inhibitors and methods of use thereof” (University of Kansas, priority 2011, dated 2016)
# Assays:
# Plasma stability, mouse = assay type: in vitro ADME; conditions: percent remaining at 3 hours
# Method: (§1) Stability of compounds in human plasma (BioChemed Services) and mouse plasma (BioChemed Services) were determined. All liquid was dispensed and transfer steps were performed with the FREEDOM EVO automated liquid handler (Tecan US). Plasma was allowed to thaw at room temperature prior to preparing the assay solution of plasma:1×PBS (1:1). The assay solution was warmed up at 37° C. prior of adding the compound. Immediately after compounds were added, time 0 minute aliquots were promptly collected and mixed with cold acetonitrile (spiked with an internal standard). The remainder of the reaction volume was incubated at 37° C. with shaking. Additional aliquots were collected 180 minutes after the start of the reaction and promptly quenched with cold acetonitrile (spiked with an internal standard). Samples were centrifuged at 3000 rpm for 10 minutes. The amount of compound in the supernatant was determined by LC/MS/MS (Applied Biosystems, Sciex API4000 Q-TRAP) and the percent of parent compound remaining after 180 minutes was calculated by the following formula: % parent compound remaining=[(concentration at 180 minutes/concentration at 0 minutes)×100]. Results reported are the mean of each reaction duplicate, normalized to the internal standard, and expressed as a percent of compound remaining after the incubation time. […]
# in vitro = assay type: cell-based; conditions: human
# Method: Immortalized human hepatocytes, Fa2N-4 cells (XenoTech) were seeded at ˜50,000 cells/well, and incubated with a range of concentrations (0.01-50 μM) of compound 17, in duplicate, for 24 hours at 37° C., 5% CO2. Cell viability was determined by cellular ATP levels using the Luminescence ATP Detection Assay System (ATPLITE 1 step, Perkin Elmer) and the Infinite M200 plate reader (Tecan). Camptothecin (highly toxic) and Terfenadine (highly non-toxic) were used as standards. Final DMSO concentration was 0.5%.
# Plasma stability, human = assay type: in vitro ADME; conditions: percent remaining at 3 hours
# Method: as §1
# [1] = Hepatic microsome stability, human; assay type: in vitro ADME; conditions: percent remaining at 1 hour
# Method: Metabolic stability was assessed in the presence of human liver microsomes (XenoTech) and mouse liver mirosomes (XenoTech). All liquid was dispensed and transfer steps were performed with the FREEDOM EVO automated liquid handler (Tecan US). NADPH, a required cofactor for CYP450 metabolism, was provided by the NADPH Regenerating System, Solutions A (BD Biosciences) and B (BD Biosciences). Compound stock solutions were initially prepared in 100% DMSO and subsequently diluted in acetonitrile for the assay. The pH of the reactions was kept at ˜7.4 with potassium phosphate buffer (BD Biosciences). The reactions were started after adding NADPH to the reaction plate containing microsomes and compounds and time 0 minutes aliquots were promptly collected and mixed with ice cold acetonitrile (spiked with internal standards) to quench the reactions. The remainder of the reaction volume was incubated at 37° C. with shaking. […] The amount of compound in the supernatant was determined by LC/MS/MS (Applied Biosystems, Sciex API4000 Q-TRAP) and the percent of parent compound remaining after 60 minutes was calculated by the following formula: % parent compound remaining=[(concentration at 60 minutes/concentration at 0 minutes)×100]. […] Results reported are the mean of each reaction triplicate, normalized to the internal standard, and expressed as a percent compound remaining after the incubation time. […]
# [2] = test system: HCV replication complexes in Huh-7.5/HCV Con1sg Rluc cells; assay: Indirect immunofluorescence staining of NS5A (replication complexes); assay type: cell-based, hepatitis C virus; conditions: 10 μM, 72 hours
# Method: For indirect immunofluorescence staining, Huh-7.5/HCV Con1sg Rluc cells were plated on cover slips in a 24-well plate. The next day, compounds were added at a 10 μM concentration and after 48 hours from the first addition, the medium was supplemented with 10 μM compound. Interferon alpha-2b was used as positive control at 100 U/well and added at the same time points as compounds. After 72 hours, indirect immunofluorescence staining was performed according to standard methods. Cells were fixed in 1% PFA for 40 minutes, washed thrice with 5 mL PBS, permeabilized with 0.05% saponin (Sigma) and blocked with 3% BSA in PBS for 1 hour at 37° C. Subsequently, cells were washed with 2 mL PBS three times and incubated with mouse monoclonal antibody 9E10 against NS5A diluted in blocking buffer for 1 hour at room temperature. Cells were washed three times with 2 ml PBS and once with 3% BSA. The cells were then incubated with ALEXA 546 conjugated-goat F(ab′)2 anti-mouse immunoglobulin G (IgG) (Invitrogen) for 1 hour at room temperature. Cells were washed twice with PBS and then mounted on glass slides using PROLONG Gold anti-fade reagent (Invitrogen). Appropriate controls were performed to rule out nonspecific binding of primary and secondary antibodies.
# Microscopy was performed with a Nikon Ti-E inverted fluorescence microscope using a 20× and 40×/NA 1.4 objective. […]
SMILES,"Plasma Stability Mouse (Plasma stability, mouse) [%]",CC50 at 24 h (in vitro) [µM],"Plasma Stability Human (Plasma stability, human) [%]",Hepatic Microsome Stability Human [1] [%],number of HCV replication complexes (NS5A staining) [2]
"Cc1ccc2nc(-c3ccc4nc(-c5ccc(NC(=O)c6cccc(Cl)c6)cc5)sc4c3)sc2c1S(=O)(=O)O [Compound 17, 2′-(4-(3-chlorobenzamido)phenyl)-6-methyl-[2,6′-bibenzo[d]thiazole]-7-sulfonic acid]",95.0,> 50,96.6,83.57,–
"Cc1ccc2nc(-c3ccc4nc(-c5ccc(NC(=O)c6cc(C(F)(F)F)cc(C(F)(F)F)c6)cc5)sc4c3)sc2c1S(=O)(=O)O [Compound 24, 2′-(4-(3,5-bis(trifluoromethyl)benzamido)phenyl)-6-methyl-[2,6′-bibenzo[d]thiazole]-7-sulfonic acid]",–,–,–,–,lower number of replication complexes
